Laboratory results: publication PMC8779255, “Determining the Anticancer Activity of Sphingosine Kinase Inhibitors Containing Heteroatoms in Their Tail Structure” (Pharmaceutics, 2022)

Key:
[1] = tested on: HT29 cells; assay: Clonogenic (colony formation) assay; format: cell-based, human; conditions: HT29, 5, 10 and 20 μM
Procedure: (§1) Cell proliferation was assayed by in vitro clonogenic assay. To perform the clonogenic assay, HT29 and HCT116 cells (1000 cells/well) were grown in 6-well plates for 24 h. Cells were treated with compound 10 and FTY720 in different concentrations for 12 h and changed fresh medium. Colonies were allowed to grow for two weeks by changing to a fresh medium every 3 days. Colonies were stained with 0.1% crystal violet prepared in 25% […] for 30 min and washed with running water and photographed with Canon Rebel T6i (Tokyo, Kanto, Japan). Colonies were counted using Image J software version 1.53i, National Institutes of Health, Bethesda, MD, USA). Plating efficiency (PE) and surviving fraction (SF) was calculated using the following formula. (1) [Plating efficiency (PE)]=Number of colony count in control/Number of cell seeded [Surviving Fraction]=Number of colony count /Number of cell seeded […]

[2] = tested on: HCT116 cells; assay: Clonogenic (colony formation) assay; format: cell-based, human; conditions: HCT116, 5, 10 and 20 μM
Procedure: as §1

[3] = In vitro metabolic stability in liver microsomes
Procedure: Microsome incubation was measured in triplicate in a 1.5 mL Eppendorf tube with 0.1 M potassium phosphate buffer (pH 7.4). […] It has a final volume of 100 mL in the presence of an NADPH regeneration system. In the final incubation mixture, 0.5 mg/mL HLM, 0.1 M potassium phosphate buffer (pH 7.4), and NADPH regeneration system (1 mM NADPH, 10 mM MgCl2) were included. In the pre-incubation mixture, HLM was added, and the mixture was run in a shaking incubator at approximately 350 rpm and 37 °C for 5 min under a Thermomixer (Eppendorf, Hamburg, Germany). Reactions were initiated by the addition of 1 mM NADPH and then quenched by the addition of 40 μL of ice-cold acetonitrile containing 10 μM chlorpropamide (CPP) as an internal standard at 0 and 30 min. After quenching, centrifugation of the incubation mixture was performed at 15,000× g for 5 min at 4 °C. An aliquot of 2 µL of the supernatant was injected into the LC-MS/MS system. The LC-MS/MS system was Xcalibur version 1.1.1 (Thermo Fisher Scientific Inc., Waltham, MA, USA).

[4] = tested on: HT29 cells; assay: Annexin V-FITC/PI staining, flow cytometry; format: cell-based, human; conditions: HT29, 10 and/or 20 µM, 24 h
Procedure: (§2) After treating HT29 and HCT116 cells with compounds 10, 11, 13 and FTY720 according to the manufacturer’s instruction, the annexin V and PI staining technique was employed to determine apoptosis in the cells. Briefly, cells (2.5 × 10^5 cells/well) were seeded in 12-well plates and treated with 10 and/or 20 µM of compounds for 24 h. Cells were collected using trypsin-EDTA and stained with annexin V-FITC dye for 15 min at room temperature, followed by PI staining for 20 min and analyzed by flow cytometer (MACSQuant Analyzer 10; Miltenyi Biotec, Bergisch Gladbach, Germany). The data was analyzed using MACSQuantify^TM version 2.8 software (Miltenyi Biotec, Bergisch Gladbach, Germany) and presented as early apoptosis, late apoptosis, or combined apoptosis percentage. Each experiment was repeated three times independently (n = 6).

[5] = tested on: HCT116 cells; assay: Annexin V-FITC/PI staining, flow cytometry; format: cell-based, human; conditions: HCT116, 10 and/or 20 µM, 24 h
Procedure: as §2

[6] = tested on: PARP, caspase-3, Bcl-2, BAX in HCT116 cells; assay: Western blotting of apoptotic pathway-related proteins; format: cell-based, human
Procedure: The cell lysate was prepared after successive treatment using mammalian protein extraction buffer (Organic buffer + 10 mM NaCl + detergent pH 7.5) mixed with 1% protease/phosphatase inhibitor cocktail; protein was quantified with BCA assay, boiled at 95 °C for 10 min by adding sample loading buffer, separated using SDS-PAGE, and transferred into methanol-activated PVDF membrane. Primary antibodies were probed overnight in PVDF membrane at 4 °C and […] with subsequent HRP anti-mouse and anti-rabbit secondary antibodies at room temperature. Then, membranes were washed with TBST buffer, and images were detected by Amersham Imager 680 (GE Healthcare; Leiden, WZ, The Netherlands) using ECL solution. Band intensities were analyzed and quantified using Image J software (version 1.53i).

[7] = target: T1, CYP1A2 (Homo sapiens, UniProt P05177); assay: Inhibition of CYP enzymes activity, human liver microsomes; conditions: human liver microsomes 0.25 mg/mL, 10 μM, phenacetin substrate
T1 sequence (P05177 1-516): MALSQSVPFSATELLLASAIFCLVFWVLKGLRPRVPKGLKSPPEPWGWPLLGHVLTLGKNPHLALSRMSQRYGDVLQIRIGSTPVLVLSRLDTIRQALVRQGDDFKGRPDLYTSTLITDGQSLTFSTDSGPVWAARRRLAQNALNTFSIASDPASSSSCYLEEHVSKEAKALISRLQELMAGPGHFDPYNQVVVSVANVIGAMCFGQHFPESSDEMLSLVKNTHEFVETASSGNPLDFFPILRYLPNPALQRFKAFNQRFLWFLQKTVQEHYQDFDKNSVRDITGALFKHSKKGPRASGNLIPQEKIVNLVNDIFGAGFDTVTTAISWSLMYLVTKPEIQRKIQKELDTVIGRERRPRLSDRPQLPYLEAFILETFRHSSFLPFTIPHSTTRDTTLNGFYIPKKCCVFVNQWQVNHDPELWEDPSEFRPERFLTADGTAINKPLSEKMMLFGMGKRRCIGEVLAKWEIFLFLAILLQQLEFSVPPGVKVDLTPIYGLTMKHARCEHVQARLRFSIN
Procedure: (§3) Afterward, to terminate the reaction, an acetonitrile solution containing an internal standard (terfenadine) was added, centrifuged for 5 min (14,000 rpm, 4 °C), and the supernatant was injected into the LC-MS/MS system. By simultaneously analyzing metabolites, the ability of the six compounds to inhibit drug metabolism enzymes was evaluated.
(§4) Metabolites of each CYP coenzyme indicator drug generated through the above reaction were analyzed using the Shimadzu Nexera XR system and TSQ vantage (Thermo). The HPLC column was a Kinetex C18 column (2.1 × 100 mm^2, 2.6 μm particle size; Phenomenex, Torrance, CA, USA), and the mobile phase was distilled water (A) containing 0.1% formic acid and acetonitrile (B) containing 0.1% formic acid. […] The generated metabolites were quantified using MRM (Multiple Reaction Monitoring) quantification modes, and data were analyzed using Xcalibur (version 1.6.1).

[8] = In vitro metabolic stability in liver microsomes; format: in vitro ADME, mouse
[9] = target: CYP2D6 (Homo sapiens, UniProt P10635); assay: Inhibition of CYP enzymes activity, human liver microsomes; conditions: human liver microsomes 0.25 mg/mL, 10 μM, dextromethorphan substrate
Procedure: as §3, §4

[10] = target: CYP2C9 (Homo sapiens, UniProt P11712); assay: as above; conditions: human liver microsomes 0.25 mg/mL, 10 μM, diclofenac substrate
Sequence of CYP2C9 (P11712 whole entry): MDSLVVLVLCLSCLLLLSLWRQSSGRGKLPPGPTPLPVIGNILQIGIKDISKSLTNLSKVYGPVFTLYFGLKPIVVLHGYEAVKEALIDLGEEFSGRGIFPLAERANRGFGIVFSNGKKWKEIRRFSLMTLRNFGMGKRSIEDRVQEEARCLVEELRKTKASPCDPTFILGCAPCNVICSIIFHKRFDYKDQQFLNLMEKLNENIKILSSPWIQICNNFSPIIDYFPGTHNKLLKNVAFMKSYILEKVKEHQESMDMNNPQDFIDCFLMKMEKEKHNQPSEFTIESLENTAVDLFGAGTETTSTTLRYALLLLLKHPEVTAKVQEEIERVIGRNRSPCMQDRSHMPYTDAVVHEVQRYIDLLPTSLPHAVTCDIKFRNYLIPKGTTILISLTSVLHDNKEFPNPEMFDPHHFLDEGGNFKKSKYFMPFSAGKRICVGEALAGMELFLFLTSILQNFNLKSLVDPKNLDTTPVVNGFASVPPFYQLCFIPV
Procedure: By simultaneously analyzing metabolites, the ability of the six compounds to inhibit drug metabolism enzymes was evaluated.
as §4

Sequence of CYP2D6 (P10635 whole entry): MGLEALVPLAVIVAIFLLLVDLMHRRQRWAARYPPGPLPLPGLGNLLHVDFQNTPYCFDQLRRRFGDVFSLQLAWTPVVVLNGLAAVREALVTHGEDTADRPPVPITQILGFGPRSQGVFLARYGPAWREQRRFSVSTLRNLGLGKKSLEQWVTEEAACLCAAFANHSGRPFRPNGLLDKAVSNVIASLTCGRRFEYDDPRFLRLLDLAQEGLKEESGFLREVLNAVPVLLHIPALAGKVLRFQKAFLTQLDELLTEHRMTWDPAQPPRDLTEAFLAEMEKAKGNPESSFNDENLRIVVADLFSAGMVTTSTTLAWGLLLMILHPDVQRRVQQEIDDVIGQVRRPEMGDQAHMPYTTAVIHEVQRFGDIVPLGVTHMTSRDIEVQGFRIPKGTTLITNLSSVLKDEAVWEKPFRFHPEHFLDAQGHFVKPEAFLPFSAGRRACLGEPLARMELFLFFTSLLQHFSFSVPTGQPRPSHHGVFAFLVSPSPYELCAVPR

Which colony formation capacity [1] does the source give for CCCCCCCOc1ccc(CCN2CCN(CCO)CC2)cc1 [Compound 10, 2-(4-(4-(Heptyloxy)phenethyl)piperazin-1-yl)ethanol] here?
Its colony formation capacity is “effectively inhibits the colony formation capacity”.

And the colony formation capacity [2]?
Its colony formation capacity is “effectively inhibits the colony formation capacity”.

And the “liver microsomal stability, Human (%)” value ([3]; % remaining after 30 min, 0.5 mg/mL microsomes, NADPH)?
The value was 70.3%.

And the “liver microsomal stability (in words)” value ([3]; human)?
The value was “stable”.

And the “apoptosis (annexin V assay)” value [4]?
Its value is “induced apoptosis”.

What about the “apoptosis (annexin V assay)” value [5] of the same molecule?
Its value is “induced apoptosis”.

And the “expression of antiapoptotic Bcl-2 protein” value ([6]; HCT116, 10 and 20 µM)?
Its value is “decreased the expression of antiapoptotic Bcl-2 protein”.

What about the “expression of proapoptotic protein BAX” value ([6]; HCT116, 10 and 20 µM) of the same molecule?
Its value is “increased the expression of proapoptotic protein BAX”.

What about the “cleavage of caspase-3” value ([6]; HCT116, 10 and 20 µM, vs nontreated control) of the same molecule?
Its value is “effectively increased the cleavage”.

What about the “cleaved PARP level” value ([6]; HCT116, vs nontreated groups) of the same molecule?
Its value is “increased cleaved PARP level”.

What about the “CYP1A2 activity (% of control activity)” value [7] of the same molecule?
Its value is >100%.

What about the “liver microsomal stability, Mouse (%)” value ([8]; % remaining after 30 min, NADPH) of the same molecule?
The value was 44.7%.

What about the “liver microsomal stability (in words)” value ([8]; mouse) of the same molecule?
The value was “unstable”.

And the “CYP2D6 activity (% of control activity)” value [9]?
Its value is 87.4%.

And the “CYP2C9 activity (% of control activity)” value [10]?
Its value is >100%.
